In ChEMBL document CHEMBL1275550, “In vitro activity of doripenem, a carbapenem for the treatment of challenging infections caused by gram-negative bacteria, against recent clinical isolates from the United States” (2008):
In brackets after ≈: the same amount, converted by molar mass.

Experiments:
Pseudomonas aeruginosa [1] = test: Antimicrobial activity against imipenem susceptible Pseudomonas aeruginosa by broth microdilution method; format: functional
Pseudomonas aeruginosa [2] = test: Antimicrobial activity against imipenem non-susceptible Pseudomonas aeruginosa assessed as intermediate isolate by broth microdilution method; format: functional
Enterobacter cloacae [3] = test: Antimicrobial activity against Enterobacter cloacae with nonderepressed AmpC beta-lactamsae assessed as intermediate isolate by broth microdilution method; format: functional
Pseudomonas aeruginosa [4] = test: Antimicrobial activity against Pseudomonas aeruginosa by broth microdilution method; format: functional
Escherichia coli [5] = test: Antimicrobial activity against Escherichia coli assessed as susceptible isolate by broth microdilution method; format: functional
Pseudomonas aeruginosa [6] = test: Antimicrobial activity against Ceftazidime non-susceptible Pseudomonas aeruginosa assessed as susceptible isolate by broth microdilution method; format: functional
Serratia marcescens [7] = test: Antimicrobial activity against Serratia marcescens by broth microdilution method; format: functional
Escherichia coli [8] = test: Antimicrobial activity against Non-ESBL Escherichia coli by broth microdilution method; format: functional
Pseudomonas aeruginosa [9] = test: Antimicrobial activity against imipenem non-susceptible Pseudomonas aeruginosa by broth microdilution method; format: functional
Acinetobacter [10] = test: Antimicrobial activity against imipenem susceptible Acinetobacter by broth microdilution method; format: functional
Escherichia coli [11] = test: Antimicrobial activity against ESBL producing Escherichia coli assessed as susceptible isolate by broth microdilution method; format: functional
Serratia marcescens [12] = test: Antimicrobial activity against Ceftazidime non-susceptible Serratia marcescens assessed as intermediate isolate by broth microdilution method; format: functional
Enterobacteriaceae [13] = test: Antimicrobial activity against ceftazidime-susceptible Enterobacteriaceae assessed as susceptible isolate by broth microdilution method; format: functional
Escherichia coli [14] = test: Antimicrobial activity against ESBL producing Escherichia coli by broth microdilution method; format: functional
Pseudomonas aeruginosa [15] = test: Antimicrobial activity against Pseudomonas aeruginosa isolated from ICU patient assessed as intermediate isolate by broth microdilution method
Proteus mirabilis [16] = test: Antimicrobial activity against ESBL producing Proteus mirabilis assessed as susceptible isolate by broth microdilution method; format: functional
Enterobacter cloacae [17] = test: Antimicrobial activity against Enterobacter cloacae assessed as susceptible isolate by broth microdilution method; format: functional
Escherichia coli [18] = test: Antimicrobial activity against ESBL producing Escherichia coli assessed as intermediate isolate by broth microdilution method; format: functional
Serratia marcescens [19] = test: Antimicrobial activity against Ceftazidime non-susceptible Serratia marcescens by broth microdilution method; format: functional
Escherichia coli [20] = test: Antimicrobial activity against Non-ESBL Escherichia coli assessed as intermediate isolate by broth microdilution method; format: functional
Enterobacteriaceae [21] = test: Antimicrobial activity against Enterobacteriaceae assessed as susceptible isolate by broth microdilution method; format: functional
Acinetobacter [22] = test: Antimicrobial activity against imipenem non-susceptible Acinetobacter assessed as resistant isolate by broth microdilution method; format: functional
Pseudomonas aeruginosa [23] = test: Antimicrobial activity against Pseudomonas aeruginosa isolated from ICU patient assessed as resistant isolate by broth microdilution method
Proteus mirabilis [24] = test: Antimicrobial activity against Non-ESBL Proteus mirabilis by broth microdilution method; format: functional
Serratia marcescens [25] = test: Antimicrobial activity against Ceftazidime susceptible Serratia marcescens assessed as susceptible isolate by broth microdilution method; format: functional
Pseudomonas aeruginosa [26] = test: Antimicrobial activity against Pseudomonas aeruginosa isolated from ICU patient assessed as susceptible isolate by broth microdilution method
Klebsiella pneumoniae [27] = test: Antimicrobial activity against Non-ESBL Klebsiella pneumoniae assessed as susceptible isolate by broth microdilution method; format: functional
Pseudomonas aeruginosa [28] = test: Antimicrobial activity against Ceftazidime susceptible Pseudomonas aeruginosa assessed as resistant isolate by broth microdilution method; format: functional
Acinetobacter [29] = test: Antimicrobial activity against imipenem non-susceptible Acinetobacter assessed as susceptible isolate by broth microdilution method; format: functional
Enterobacteriaceae [30] = test: Antimicrobial activity against Enterobacteriaceae by broth microdilution method; format: functional
Citrobacter [31] = test: Antimicrobial activity against Citrobacter assessed as susceptible isolate by broth microdilution method; format: functional
Klebsiella pneumoniae [32] = test: Antimicrobial activity against ESBL producing Klebsiella pneumoniae assessed as intermediate isolate by broth microdilution method; format: functional
Pseudomonas aeruginosa [33] = test: Antimicrobial activity against Ceftazidime susceptible Pseudomonas aeruginosa by broth microdilution method; format: functional
Citrobacter [34] = test: Antimicrobial activity against Citrobacter by broth microdilution method; format: functional
Pseudomonas aeruginosa [35] = test: Antimicrobial activity against Pseudomonas aeruginosa assessed as susceptible isolate by broth microdilution method; format: functional
Acinetobacter [36] = test: Antimicrobial activity against Acinetobacter by broth microdilution method; format: functional
Pseudomonas aeruginosa [37] = test: Antimicrobial activity against imipenem susceptible Pseudomonas aeruginosa assessed as intermediate isolate by broth microdilution method; format: functional
Enterobacter cloacae [38] = test: Antimicrobial activity against Enterobacter cloacae by broth microdilution method; format: functional
Pseudomonas aeruginosa [39] = test: Antimicrobial activity against imipenem susceptible Pseudomonas aeruginosa assessed as susceptible isolate by broth microdilution method; format: functional
Acinetobacter [40] = test: Antimicrobial activity against imipenem non-susceptible Acinetobacter by broth microdilution method; format: functional
Serratia marcescens [41] = test: Antimicrobial activity against Ceftazidime non-susceptible Serratia marcescens assessed as susceptible isolate by broth microdilution method; format: functional
Enterobacteriaceae [42] = test: Antimicrobial activity against Ceftazidime non-susceptible Enterobacteriaceae by broth microdilution method; format: functional
Acinetobacter [43] = test: Antimicrobial activity against Acinetobacter assessed as susceptible isolate by broth microdilution method; format: functional
Streptococcus pneumoniae = test: Antimicrobial activity against penicillin-susceptible Streptococcus pneumoniae by broth microdilution method; format: functional; settings: Streptococcus pneumoniae
Proteus mirabilis [44] = test: Antimicrobial activity against ESBL producing Proteus mirabilis by broth microdilution method; format: functional
Citrobacter [45] = test: Antimicrobial activity against Citrobacter with derepressed AmpC beta-lactamsae assessed as susceptible isolate by broth microdilution method; format: functional
Escherichia coli [46] = test: Antimicrobial activity against Escherichia coli by broth microdilution method; format: functional
Enterobacter cloacae [47] = test: Antimicrobial activity against Enterobacter cloacae with nonderepressed AmpC beta-lactamsae by broth microdilution method; format: functional
Enterobacteriaceae [48] = test: Antimicrobial activity against Ceftazidime non-susceptible Enterobacteriaceae assessed as resistant isolate by broth microdilution method; format: functional
Serratia marcescens [49] = test: Antimicrobial activity against Ceftazidime susceptible Serratia marcescens by broth microdilution method; format: functional
Enterobacteriaceae [50] = test: Antimicrobial activity against ceftazidime-susceptible Enterobacteriaceae assessed as resistant isolate by broth microdilution method; format: functional
Enterobacteriaceae [51] = test: Antimicrobial activity against Ceftazidime non-susceptible Enterobacteriaceae assessed as intermediate isolate by broth microdilution method; format: functional
Enterobacteriaceae [52] = test: Antimicrobial activity against ceftazidime-susceptible Enterobacteriaceae by broth microdilution method; format: functional

C[C@@H](O)[C@H]1C(=O)N2C(C(=O)O)=C(SCCNC=N)C[C@H]12 [IMIPENEM ANHYDROUS]
MIC50 (Pseudomonas aeruginosa [1]): 2 µg/mL (≈ 6.68 µM) | MIC90 (Pseudomonas aeruginosa [1]): 4 µg/mL (≈ 13.4 µM) | Activity (Pseudomonas aeruginosa [2]): 32.4% | Activity (Enterobacter cloacae [3]): 0.5% | MIC50 (Pseudomonas aeruginosa [4]): 4 µg/mL (≈ 13.4 µM) | MIC90 (Pseudomonas aeruginosa [4]): 32 µg/mL (≈ 107 µM) | Activity (Escherichia coli [5]): 100% | Activity (Pseudomonas aeruginosa [6]): 55.5% | MIC50 (Serratia marcescens [7]): 2 µg/mL (≈ 6.68 µM) | MIC90 (Serratia marcescens [7]): 4 µg/mL (≈ 13.4 µM) | MIC50 (Escherichia coli [8]): 0.25 µg/mL (≈ 0.835 µM) | MIC90 (Escherichia coli [8]): 0.5 µg/mL (≈ 1.67 µM) | MIC50 (Pseudomonas aeruginosa [9]): 16 µg/mL (≈ 53.4 µM) | MIC90 (Pseudomonas aeruginosa [9]): > 32 µg/mL | MIC50 (Acinetobacter [10]): 0.5 µg/mL (≈ 1.67 µM) | MIC90 (Acinetobacter [10]): 4 µg/mL (≈ 13.4 µM) | Activity (Escherichia coli [11]): 100% | Activity (Serratia marcescens [12]): 0% | Activity (Enterobacteriaceae [13]): 99.6% | MIC50 (Escherichia coli [14]): 0.5 µg/mL (≈ 1.67 µM) | MIC90 (Escherichia coli [14]): 1 µg/mL (≈ 3.34 µM) | Activity (Pseudomonas aeruginosa [15]): 5.8% | Activity (Proteus mirabilis [16]): 100% | Activity (Enterobacter cloacae [17]): 99.6% | Activity (Escherichia coli [18]): 0% | MIC50 (Serratia marcescens [19]): 2 µg/mL (≈ 6.68 µM) | MIC90 (Serratia marcescens [19]): 4 µg/mL (≈ 13.4 µM) | Activity (Escherichia coli [20]): 0% | Activity (Enterobacteriaceae [21]): 99.4% | Activity (Acinetobacter [22]): 96.1% | Activity (Pseudomonas aeruginosa [23]): 26.6% | MIC50 (Proteus mirabilis [24]): 2 µg/mL (≈ 6.68 µM) | MIC90 (Proteus mirabilis [24]): 4 µg/mL (≈ 13.4 µM) | Activity (Serratia marcescens [25]): 98.9% | Activity (Pseudomonas aeruginosa [26]): 67.6% | Activity (Klebsiella pneumoniae [27]): 99.8% | Activity (Pseudomonas aeruginosa [28]): 13.1% | Activity (Acinetobacter [29]): 0% | MIC50 (Enterobacteriaceae [30]): 0.5 µg/mL (≈ 1.67 µM) | MIC90 (Enterobacteriaceae [30]): 2 µg/mL (≈ 6.68 µM) | Activity (Citrobacter [31]): 99.8% | Activity (Klebsiella pneumoniae [32]): 2.3% | MIC50 (Pseudomonas aeruginosa [33]): 4 µg/mL (≈ 13.4 µM) | MIC90 (Pseudomonas aeruginosa [33]): 16 µg/mL (≈ 53.4 µM) | MIC50 (Citrobacter [34]): 1 µg/mL (≈ 3.34 µM) | MIC90 (Citrobacter [34]): 2 µg/mL (≈ 6.68 µM) | Activity (Pseudomonas aeruginosa [35]): 76.3% | MIC50 (Acinetobacter [36]): 1 µg/mL (≈ 3.34 µM) | MIC90 (Acinetobacter [36]): > 32 µg/mL | Activity (Pseudomonas aeruginosa [37]): 0% | MIC50 (Enterobacter cloacae [38]): 1 µg/mL (≈ 3.34 µM) | MIC90 (Enterobacter cloacae [38]): 2 µg/mL (≈ 6.68 µM) | Activity (Pseudomonas aeruginosa [39]): 100% | MIC50 (Acinetobacter [40]): > 32 µg/mL | MIC90 (Acinetobacter [40]): > 32 µg/mL | Activity (Serratia marcescens [41]): 100% | MIC50 (Enterobacteriaceae [42]): 1 µg/mL (≈ 3.34 µM) | MIC90 (Enterobacteriaceae [42]): 2 µg/mL (≈ 6.68 µM) | Activity (Acinetobacter [43]): 82.4% | MIC50 (Streptococcus pneumoniae): ≤ 0.015 µg/mL | MIC90 (Streptococcus pneumoniae; read-out: MIC90): ≤ 0.015 µg/mL | MIC (Proteus mirabilis [44]): 0.5 µg/mL (≈ 1.67 µM) | Activity (Citrobacter [45]): 100% | MIC50 (Escherichia coli [46]): 0.25 µg/mL (≈ 0.835 µM) | MIC90 (Escherichia coli [46]): 0.5 µg/mL (≈ 1.67 µM) | MIC50 (Enterobacter cloacae [47]): 1 µg/mL (≈ 3.34 µM) | MIC90 (Enterobacter cloacae [47]): 2 µg/mL (≈ 6.68 µM) | Activity (Enterobacteriaceae [48]): 1% | MIC50 (Serratia marcescens [49]): 2 µg/mL (≈ 6.68 µM) | MIC90 (Serratia marcescens [49]): 4 µg/mL (≈ 13.4 µM) | Activity (Enterobacteriaceae [50]): 0.1% | Activity (Enterobacteriaceae [51]): 1.7% | MIC50 (Enterobacteriaceae [52]): 0.5 µg/mL (≈ 1.67 µM) | MIC90 (Enterobacteriaceae [52]): 2 µg/mL (≈ 6.68 µM)
